{"source": "patent US10906915B2", "about": "“Substituted pyrazoloazepin-4-ones and their use as phosphodiesterase inhibitors” (LEO Pharma A/S, priority 2016, dated 2021)"}
{"molecular_target": "human PDE4D catalytic domain (UniProt no. Q08499) (Homo sapiens (Human), UniProt Q08499)", "sequence (Q08499 380-740 limits assumed)": "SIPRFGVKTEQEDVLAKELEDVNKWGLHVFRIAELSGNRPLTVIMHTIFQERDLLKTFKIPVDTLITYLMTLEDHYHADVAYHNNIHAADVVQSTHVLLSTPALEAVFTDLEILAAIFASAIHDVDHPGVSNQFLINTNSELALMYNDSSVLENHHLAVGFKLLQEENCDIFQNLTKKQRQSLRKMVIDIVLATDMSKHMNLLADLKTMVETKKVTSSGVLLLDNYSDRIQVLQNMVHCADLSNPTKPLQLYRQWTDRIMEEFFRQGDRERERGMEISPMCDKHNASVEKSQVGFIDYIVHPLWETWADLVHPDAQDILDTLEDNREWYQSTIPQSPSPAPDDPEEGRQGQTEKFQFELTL", "assay": "PDE4 assay (TR-FRET, FAM-cAMP cleavage)", "format": "biochemical", "conditions": "read-out: PDE4 IC50 range", "outline": "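Read-out is time-resolved FRET from Tb donor to FAM-AMP captured on trivalent-metal nanoparticles added to stop the reaction. Substrate was a mix of plain and FAM-labelled cAMP, cleaved by human PDE4D catalytic domain ([…]) with titrated compound; IC50 ranges (nM) versus controls.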", "units": {"IC50": "nM"}}
{"smiles": "CCc1nn(CC(C)(C)COC(=O)c2ccc(S(=O)(=O)N(C)C)cc2)c2c1C(=O)NCC1(CCOCC1)C2", "note": "[Example 318, [3-(3-ethyl-4-oxo-spiro[6,8-dihydro-5H-pyrazolo[4,3-c]azepine-7,4′-tetrahydropyran]-1-yl)-2,2-dimethyl-propyl] 4-(dimethylsulfamoyl)benzoate]", "IC50": "< 100"}
{"smiles": "CCc1nn(CC(C)(C)COC(=O)c2ccc(S(=O)(=O)C3CCCC3)cc2)c2c1C(=O)NCC1(CCOCC1)C2", "note": "[Example 319, [3-(3-ethyl-4-oxo-spiro[6,8-dihydro-5H-pyrazolo[4,3-c]azepine-7,4′-tetrahydropyran]-1-yl)-2,2-dimethyl-propyl] 4-cyclopentylsulfonylbenzoate]", "IC50": "< 100"}
{"smiles": "CCc1nn(CC(C)(C)COC(=O)c2cccc(S(=O)(=O)N3CCCC3)c2)c2c1C(=O)NCC1(CCOCC1)C2", "note": "[Example 320, [3-(3-ethyl-4-oxo-spiro[6,8-dihydro-5H-pyrazolo[4,3-c]azepine-7,4′-tetrahydropyran]-1-yl)-2,2-dimethyl-propyl] 3-pyrrolidin-1-ylsulfonylbenzoate]", "IC50": "< 100"}
{"smiles": "CCc1nn(CC(C)(C)COC(=O)c2ccc(S(=O)(=O)N3CCCC3)cc2)c2c1C(=O)NCC1(CCOCC1)C2", "note": "[Example 321, [3-(3-ethyl-4-oxo-spiro[6,8-dihydro-5H-pyrazolo[4,3-c]azepine-7,4′-tetrahydropyran]-1-yl)-2,2-dimethyl-propyl] 4-pyrrolidin-1-ylsulfonylbenzoate]", "IC50": "< 100"}
{"smiles": "CCc1nn(CC(C)(C)COC(=O)c2ccc(S(=O)(=O)N3CCOCC3)cc2)c2c1C(=O)NCC1(CCOCC1)C2", "note": "[Example 322, [3-(3-ethyl-4-oxo-spiro[6,8-dihydro-5H-pyrazolo[4,3-c]azepine-7,4′-tetrahydropyran]-1-yl)-2,2-dimethyl-propyl] 4-morpholinosulfonylbenzoate]", "IC50": "< 100"}
{"smiles": "CCc1nn(CC(C)(C)COC(=O)c2cccc(S(=O)(=O)N3CCOCC3)c2)c2c1C(=O)NCC1(CCOCC1)C2", "note": "[Example 323, [3-(3-ethyl-4-oxo-spiro[6,8-dihydro-5H-pyrazolo[4,3-c]azepine-7,4′-tetrahydropyran]-1-yl)-2,2-dimethyl-propyl] 3-morpholinosulfonylbenzoate]", "IC50": "< 100"}
{"smiles": "CCc1nn(CC(C)(C)COC(=O)c2ccc(S(=O)(=O)N3CCN(C(C)=O)CC3)cc2)c2c1C(=O)NCC1(CCOCC1)C2", "note": "[Example 324, [3-(3-ethyl-4-oxo-spiro[6,8-dihydro-5H-pyrazolo[4,3-c]azepine-7,4′-tetrahydropyran]-1-yl)-2,2-dimethyl-propyl] 4-(4-acetylpiperazin-1-yl)sulfonylbenzoate]", "IC50": "< 100"}
{"smiles": "CCc1nn(CC(C)(C)COC(=O)c2cccc(S(=O)(=O)N3CCN(C(C)=O)CC3)c2)c2c1C(=O)NCC1(CCOCC1)C2", "note": "[Example 325, [3-(3-ethyl-4-oxo-spiro[6,8-dihydro-5H-pyrazolo[4,3-c]azepine-7,4′-tetrahydropyran]-1-yl)-2,2-dimethyl-propyl] 3-(4-acetylpiperazin-1-yl)sulfonylbenzoate]", "IC50": "< 100"}
{"smiles": "CCc1nn(CC(C)(C)COC(=O)c2ccc(C(N)=O)cc2)c2c1C(=O)NCC1(CCOCC1)C2", "note": "[Example 328, [3-(3-ethyl-4-oxo-spiro[6,8-dihydro-5H-pyrazolo[4,3-c]azepine-7,4′-tetrahydropyran]-1-yl)-2,2-dimethyl-propyl] 4-carbamoylbenzoate]", "IC50": "< 100"}
{"smiles": "CCc1nn(CC(C)(C)COC(=O)c2ccc(C(=O)NC)cc2)c2c1C(=O)NCC1(CCOCC1)C2", "note": "[Example 329, [3-(3-ethyl-4-oxo-spiro[6,8-dihydro-5H-pyrazolo[4,3-c]azepine-7,4′-tetrahydropyran]-1-yl)-2,2-dimethyl-propyl] 4-(methylcarbamoyl)benzoate]", "IC50": "< 100"}
{"smiles": "CCNC(=O)c1ccc(C(=O)OCC(C)(C)Cn2nc(CC)c3c2CC2(CCOCC2)CNC3=O)cc1", "note": "[Example 330, [3-(3-ethyl-4-oxo-Spiro[6,8-dihydro-5H-pyrazolo[4,3-c]azepine-7,4′-tetrahydropyran]-1-yl)-2,2-dimethyl-propyl] 4-(ethylcarbamoyl)benzoate]", "IC50": "< 100"}
